Assays:
[1] = test system: endogenous testosterone, LH, and FSH production; experiment: Example 3: hormone levels after enclomiphene; assay type: in vivo, human; conditions: 6.25 mg enclomiphene; n=1
Method: This example investigated the effects of administering a SERM (enclomiphene) on endogenous testosterone, LH, and FSH production.
Hormone levels were measured after administration of 6.25 mg of enclomiphene (see Table 3, n=1).

[2] = Testosterone concentration at time points after 200 mg of testosterone (FIG. 1)
Method: FIG. 1 is a phase diagram of the testosterone concentration in a patient at various time points after being administered 200 mg of testosterone.
Hormone levels were measured after co-administration of 200 mg of testosterone and 6.25 mg of enclomiphene for 30 days. Testosterone concentration was measured at +4 hours and +12 hours after administration. […] Testosterone concentration was measured at +4 hours after administration to capture the peak testosterone concentration (cMax) and +12 hours after administration to capture the trough testosterone concentration (cMin) to determine if endogenous testosterone suppression is prevented with the enclomiphene.

| SMILES | Sex Hormone Binding Globulin [1] [nmol/L] | increase of calculated free testosterone from baseline (114 pg/mL) [1] [%] | time of testosterone peak [2] [h] | time until testosterone is out of the system [2] [h] |
| --- | --- | --- | --- | --- |
| CCN(CC)CCOc1ccc(/C(=C(/Cl)c2ccccc2)c2ccccc2)cc1 [enclomiphene] | 20 | 73 |  |  |
| C[C@]12CC[C@H]3[C@@H](CCC4=CC(=O)CC[C@@]43C)[C@@H]1CC[C@@H]2O [testosterone, 17β-hydroxy-4-androsten-3-one] |  |  | 3 to 5 | ≤ 12 |

Source: US12544387B2, “Methods and compositions for testosterone production” (priority 2023, dated 2026)
